# Test results taken from PubChem BioAssay AID1259407 (Chemical Carcinogenesis Research Information System (CCRIS), 2018).
# The source made the active and inactive calls. How the calls were made is not given here.
# Test system: CCRIS mutagenicity, Ames/micronucleus/aberration tests
# Assay: CCRIS mutagenicity studies
# Text: The CCRIS database contains chemical records with carcinogenicity, mutagenicity, tumor promotion, and tumor inhibition test results. It was developed by the National Cancer Institute (NCI). Data are derived from studies cited in primary journals, current awareness tools, NCI reports, and other sources. Test results have been reviewed by experts in carcinogenesis and mutagenesis.
# CCRIS provides historical information from the years 1985 - 2011. It is no longer updated.
# This is an archive assay for CCRIS mutagenicity studies.
# [1] = Test System: AMES SALMONELLA TYPHIMURIUM, Strain/Indicator: TA98, Metabolic Activation: NONE, Method: PREINCUBATION
# [2] = Test System: AMES SALMONELLA TYPHIMURIUM, Strain/Indicator: TA100, Metabolic Activation: NONE, Method: PREINCUBATION
# [3] = Test System: AMES SALMONELLA TYPHIMURIUM, Strain/Indicator: TA1535, Metabolic Activation: NONE, Method: PREINCUBATION
# [4] = Test System: AMES SALMONELLA TYPHIMURIUM, Strain/Indicator: TA1537, Metabolic Activation: NONE, Method: PREINCUBATION
# [5] = Test System: AMES SALMONELLA TYPHIMURIUM, Strain/Indicator: TA100, Metabolic Activation: NONE, Method: STANDARD PLATE
compound,measurement,setting,value
CCCCCCCCCCCCCCCCCC(=O)NCCNC(=O)CCCCCCCCCCCCCCCCC,mutagenic call,[1],inactive; negative
same,mutagenic call,"Test System: AMES SALMONELLA TYPHIMURIUM, Strain/Indicator: TA98, Metabolic Activation: RAT LIVER S-9, PHENOBARBITAL AND BETA-NAPHTHOFLAVONE, Method: PREINCUBATION",inactive; negative
same,mutagenic call,"Test System: AMES SALMONELLA TYPHIMURIUM, Strain/Indicator: TA98, Metabolic Activation: RAT, LIVER, S-9, KC 500, Method: PREINCUBATION",inactive; negative
same,mutagenic call,[2],inactive; negative
same,mutagenic call,"Test System: AMES SALMONELLA TYPHIMURIUM, Strain/Indicator: TA100, Metabolic Activation: RAT LIVER S-9, PHENOBARBITAL AND BETA-NAPHTHOFLAVONE, Method: PREINCUBATION",inactive; negative
same,mutagenic call,"Test System: AMES SALMONELLA TYPHIMURIUM, Strain/Indicator: TA100, Metabolic Activation: RAT, LIVER, S-9, KC 500, Method: PREINCUBATION",inactive; negative
same,mutagenic call,[3],inactive; negative
same,mutagenic call,"Test System: AMES SALMONELLA TYPHIMURIUM, Strain/Indicator: TA1535, Metabolic Activation: RAT LIVER S-9, PHENOBARBITAL AND BETA-NAPHTHOFLAVONE, Method: PREINCUBATION",inactive; negative
same,mutagenic call,"Test System: AMES SALMONELLA TYPHIMURIUM, Strain/Indicator: TA1535, Metabolic Activation: RAT, LIVER, S-9, KC 500, Method: PREINCUBATION",inactive; negative
same,mutagenic call,[4],inactive; negative
same,mutagenic call,"Test System: AMES SALMONELLA TYPHIMURIUM, Strain/Indicator: TA1537, Metabolic Activation: RAT LIVER S-9, PHENOBARBITAL AND BETA-NAPHTHOFLAVONE, Method: PREINCUBATION",inactive; negative
same,mutagenic call,"Test System: AMES SALMONELLA TYPHIMURIUM, Strain/Indicator: TA1537, Metabolic Activation: RAT, LIVER, S-9, KC 500, Method: PREINCUBATION",inactive; negative
same,mutagenic call,"Test System: AMES SALMONELLA TYPHIMURIUM, Strain/Indicator: TA1538, Metabolic Activation: NONE, Method: PREINCUBATION",inactive; negative
same,mutagenic call,"Test System: AMES SALMONELLA TYPHIMURIUM, Strain/Indicator: TA1538, Metabolic Activation: RAT, LIVER, S-9, KC 500, Method: PREINCUBATION",inactive; negative
same,mutagenic call,"Test System: E. COLI, Strain/Indicator: WP2 UVRA, Metabolic Activation: NONE, Method: PREINCUBATION",inactive; negative
same,mutagenic call,"Test System: E. COLI, Strain/Indicator: WP2 UVRA, Metabolic Activation: RAT, LIVER, S-9, KC 500, Method: PREINCUBATION",inactive; negative
same,mutagenic call,"Test System: E.COLI, Strain/Indicator: WP2UVRA/PKM101, Metabolic Activation: NONE, Method: PREINCUBATION",inactive; negative
same,mutagenic call,"Test System: E.COLI, Strain/Indicator: WP2UVRA/PKM101, Metabolic Activation: RAT LIVER S-9, PHENOBARBITAL AND BETA-NAPHTHOFLAVONE, Method: PREINCUBATION",inactive; negative
CCCCCCCCCCCCCCCCCC[N+](C)(C)Cc1ccccc1,mutagenic call,"Test System: AMES SALMONELLA TYPHIMURIUM, Strain/Indicator: TA97, Metabolic Activation: HAMSTER, LIVER, S-9, AROCLOR 1254 (10%), Method: PREINCUBATION",inactive; negative
same,mutagenic call,"Test System: AMES SALMONELLA TYPHIMURIUM, Strain/Indicator: TA97, Metabolic Activation: HAMSTER, LIVER, S-9, AROCLOR 1254 (30%), Method: PREINCUBATION",inactive; negative
same,mutagenic call,"Test System: AMES SALMONELLA TYPHIMURIUM, Strain/Indicator: TA97, Metabolic Activation: NONE, Method: PREINCUBATION",inactive; negative
same,mutagenic call,"Test System: AMES SALMONELLA TYPHIMURIUM, Strain/Indicator: TA97, Metabolic Activation: RAT, LIVER, S-9, AROCLOR 1254 (10%), Method: PREINCUBATION",inactive; negative
same,mutagenic call,"Test System: AMES SALMONELLA TYPHIMURIUM, Strain/Indicator: TA97, Metabolic Activation: RAT, LIVER, S-9, AROCLOR 1254 (30%), Method: PREINCUBATION",inactive; negative
same,mutagenic call,"Test System: AMES SALMONELLA TYPHIMURIUM, Strain/Indicator: TA98, Metabolic Activation: HAMSTER, LIVER, S-9, AROCLOR 1254 (10%), Method: PREINCUBATION",inactive; negative
same,mutagenic call,"Test System: AMES SALMONELLA TYPHIMURIUM, Strain/Indicator: TA98, Metabolic Activation: HAMSTER, LIVER, S-9, AROCLOR 1254 (30%), Method: PREINCUBATION",inactive; negative
same,mutagenic call,[1],inactive; negative
same,mutagenic call,"Test System: AMES SALMONELLA TYPHIMURIUM, Strain/Indicator: TA98, Metabolic Activation: RAT, LIVER, S-9, AROCLOR 1254 (10%), Method: PREINCUBATION",inactive; negative
same,mutagenic call,"Test System: AMES SALMONELLA TYPHIMURIUM, Strain/Indicator: TA98, Metabolic Activation: RAT, LIVER, S-9, AROCLOR 1254 (30%), Method: PREINCUBATION",inactive; negative
same,mutagenic call,"Test System: AMES SALMONELLA TYPHIMURIUM, Strain/Indicator: TA100, Metabolic Activation: HAMSTER, LIVER, S-9, AROCLOR 1254 (10%), Method: PREINCUBATION",inactive; negative
same,mutagenic call,"Test System: AMES SALMONELLA TYPHIMURIUM, Strain/Indicator: TA100, Metabolic Activation: HAMSTER, LIVER, S-9, AROCLOR 1254 (30%), Method: PREINCUBATION",inactive; negative
same,mutagenic call,[2],inactive; negative
same,mutagenic call,"Test System: AMES SALMONELLA TYPHIMURIUM, Strain/Indicator: TA100, Metabolic Activation: RAT, LIVER, S-9, AROCLOR 1254 (10%), Method: PREINCUBATION",inactive; negative
same,mutagenic call,"Test System: AMES SALMONELLA TYPHIMURIUM, Strain/Indicator: TA100, Metabolic Activation: RAT, LIVER, S-9, AROCLOR 1254 (30%), Method: PREINCUBATION",inactive; negative
same,mutagenic call,"Test System: AMES SALMONELLA TYPHIMURIUM, Strain/Indicator: TA1535, Metabolic Activation: HAMSTER, LIVER, S-9, AROCLOR 1254 (10%), Method: PREINCUBATION",inactive; negative
same,mutagenic call,"Test System: AMES SALMONELLA TYPHIMURIUM, Strain/Indicator: TA1535, Metabolic Activation: HAMSTER, LIVER, S-9, AROCLOR 1254 (30%), Method: PREINCUBATION",inactive; negative
same,mutagenic call,[3],inactive; negative
same,mutagenic call,"Test System: AMES SALMONELLA TYPHIMURIUM, Strain/Indicator: TA1535, Metabolic Activation: RAT, LIVER, S-9, AROCLOR 1254 (10%), Method: PREINCUBATION",inactive; negative
same,mutagenic call,"Test System: AMES SALMONELLA TYPHIMURIUM, Strain/Indicator: TA1535, Metabolic Activation: RAT, LIVER, S-9, AROCLOR 1254 (30%), Method: PREINCUBATION",inactive; negative
same,mutagenic call,"Test System: AMES SALMONELLA TYPHIMURIUM, Strain/Indicator: TA1537, Metabolic Activation: HAMSTER, LIVER, S-9, AROCLOR 1254 (30%), Method: PREINCUBATION",inactive; negative
same,mutagenic call,[4],inactive; negative
same,mutagenic call,"Test System: AMES SALMONELLA TYPHIMURIUM, Strain/Indicator: TA1537, Metabolic Activation: RAT, LIVER, S-9, AROCLOR 1254 (30%), Method: PREINCUBATION",inactive; negative
O=[N+]([O-])c1cc2[nH]c3ccc4ccccc4c3c2c2cccc(O)c12,mutagenic call,"Test System: AMES SALMONELLA TYPHIMURIUM, Strain/Indicator: TA98, Metabolic Activation: NONE, Method: STANDARD PLATE",active; positive
same,mutagenic call,"Test System: AMES SALMONELLA TYPHIMURIUM, Strain/Indicator: TA98, Metabolic Activation: RAT, LIVER, S-9, 3-METHYLCHOLANTHRENE, Method: STANDARD PLATE",active; positive
same,mutagenic call,[5],active; positive
same,mutagenic call,"Test System: AMES SALMONELLA TYPHIMURIUM, Strain/Indicator: TA100, Metabolic Activation: RAT, LIVER, S-9, 3-METHYLCHOLANTHRENE, Method: STANDARD PLATE",active; positive
O=CN(O)c1ccc(Oc2ccc(Cl)cc2)cc1,mutagenic call,[5],inactive; negative
same,mutagenic call,"Test System: AMES SALMONELLA TYPHIMURIUM, Strain/Indicator: TA100, Metabolic Activation: RAT, LIVER, S-9, KANECLOR 500, Method: STANDARD PLATE",active; positive
